Each structure is given as a SMILES string. Where a name gives a salt, the structure may show the parent alone. Read-outs that look alike come from different tables or passages of the source.

The subject of data set [1] is PKGIα expression in the spinal cord. The data set can be described thus: Western blot of PKGIα in lumbar enlargement segments 96 h after formalin injection. Format: in vivo, rat. Particulars: 96 h formalin-treated rats, not significant (p>0.05). Here is the method:
Thirty five rats were sacrificed by decapitation at 0 h (normal control), 24 h, 48 h and 96 h after injection of saline (100 μl) or formalin (100 μl, 4%) into a hind paw. Lumbar enlargement segments of the spinal cord were dissected, quickly frozen in liquid nitrogen and stored at −80° C. for later use. Frozen tissues were homogenized in the homogenization buffer (50 mM Tris-HCl, 0.1 mM EDTA, 0.1mM EGTA, 1 mM phenylmethylsulfonyl fluoride, 1 μM leupeptin, 2 μM pepstatin A, 0.1% 2-mercaptoethanol). The crude homogenate was centrifuged at 4° C. for 15 min at 3,000×g. The supernatants (100 μg) were heated for 5 min at 90° C. and then loaded onto 4% stacking/7.5% separating SDS-polyacrylamide gels. The proteins were electrophoretically transferred onto nitrocellulose membrane and blocked with 2% non-fat dry milk and subsequently incubated for 1 h with polyclonal rabbit anti-PKGIα antibody (1:500) and with monoclonal mouse anti-endothelium NOS (eNOS) antibody (1:500) (Transduction Labs). Normal lung was used as a positive control. Specific proteins were detected using horseradish peroxidase-conjugated anti-rabbit or anti-mouse secondary antibody and visualized using chemiluminescence reagents provided with the ECL kit (Amersham Life Sciences Inc, II) and exposure to film. The intensity of blots was quantified with densitometry (Personal Densitometer/IMAGEQUANT; Molecular Dynamics).
In some experiments, rats were injected intraperitoneally (i.p.) with an NMDA receptor antagonist, MK-801 (RBI, MA), a selective neuronal NOS inhibitor (nNOS), 7-Nitroindazole (7-NI, Alexis Biochemicals, CA) and a selective sGC inhibitor, 1H-[1,2,4]oxadiazolo[4,3-a]quinoxalin-1-one (ODQ, Alexis Biochemicals, CA), each day for 4 days (96 h). The doses of MK-801, 7-NI and ODQ used in the present study were determined regarding to the previous studies (29-31). The experiments were divided into five groups. Group 1 (n=4) as control: i.p. injection of saline (0.9%, 2 ml) or peanut oil (2 ml) 30 min prior to the subcutaneous injection of saline (0.9%, 100 μl). […]

Data set [2] is described as follows: Subjective observation of animal behavior after intrathecal administration. The settings on record: period of 2 h, compared with control animals.
The test system of another data set is tail-flick latency. The data set can be described thus: Radiant heat tail-flick test, agents given alone intrathecally. Format: in vivo, rat. The settings on record: for maximal decrease in the tail-flick latency: compared to saline-treated group.
Data set [3] has as its system NMDA-induced facilitation of the tail-flick reflex. The data set can be described thus: NMDA-induced facilitation of the tail-flick reflex. The class given is in vivo, rat.
In data set [4] the test system is NMDA-produced facilitation of the tail flick reflex. The settings on record: pretreatment, spinal cord; Meller et al., 1992a; cited from earlier work.
Data set [5] relates to formalin-induced pain behavior. Particulars: for reduction of the number of flinches and shakes evoked by formalin: 30 μg intrathecal. How it is done:
The rats were implanted with an intrathecal catheter under pentobarbital anesthesia. A polyethylene (PE-10) tube was inserted into the subarachnoid space at the rostral level of the spinal cord lumbar enlargement through an incision at the atlanto-occipital membrane according to the method of Yaksh and Rudy (27). The animals were allowed to recover for 7 to 10 days before being used experimentally. Rats showing neurological deficits postoperatively were discarded.
(§1) The drug was dissolved in distilled water before administration. The animals were randomly assigned into four groups as follows: distilled water (control) (n=12); 10 μg of Rp-8-p-CPT-cGMPS (n=6); 20 μg of Rp-8-p-CPT-cGMPS (n=6); 30 μg of Rp-8-p-CPTc-GMPS (n=6). The drug solution was injected intrathecally in a volume of 10 μl, followed by an injection of 10 μl of distilled water to flush the catheter. Fifteen minutes later, formalin (100 μl, 4%) was injected into a hind paw of the rat. In addition, four rats were alone treated intrathecally with Rp-8-p-CPT-cGMPS (30 μg) and another four rats were normal without any treatment.
Immediately following the formalin injection, each individual rat was placed in a transparent cage for observation of the formalin-injected paw. The pain-related behaviors, flinches and shakes, were assessed for the next 60 min by an experimenter who was unaware of the group assignment. The observational session was divided into two periods: a phasic period (0-10 min) and a tonic period (10-60 min). The mean number of flinches and shakes for each period of each treatment group was determined

Data set [6] relates to NOC-12-induced decrease in the tail-flick latency. Particulars: for effect on NOC-12-induced decrease in the tail-flick latency: tested 30 and 60 min, p<0.01. How it is done:
Rats were anesthetized by intraperitoneal injection of pentobarbital sodium (45 mg/kg). Chronic intrathecal catheters were inserted by passing a polyethylene-10 (PE-10) catheter through an incision in the atlanto-occipital membrane to a position 8 cm caudal to the cistema at the level of the lumbar subarachinoid space. The animals were allowed to recover for a week before experiments were initiated. Rats showing neurologic deficits post-operatively were removed from the study.
Nociception was evaluated by the radiant heat tail-flick test with no anesthesia. Each rat was placed in an Animal Holder (IITC Life Science, CA, USA), 690 cm^3 in capacity with rubber stoppers in both ends with a rostral inlet and a caudal outlet. The tail of the rat protruded through the caudal hole. The tail-flick apparatus (Model 33B Tail Flick Analgesy Meter, IITC Life Science, CA, USA) generated a beam of radiant heat which was focused on the underside of the tail, 5 cm from the tip. […] Nociception was assessed by the prolongation of the time required to induce tail-flick after applying radiant heat to the skin of the tail. The latency of reflexive removal of the tail from the heat was measured automatically to the nearest 0.01 s. Tail-flick latency was measured six times and the basal latency was defined as the mean of the last five times. The tail-flick data are expressed as percentage change calculated by the formula: (trial latency—baseline latency)/(baseline latency)×100%.
The drug solution was injected intrathecally in a volume of 10 μl, followed by an injection of 10 μl of saline to flush the catheter.

The subject of data set [7] is formalin-induced c-fos expression in the spinal cord. The settings on record: for number of Fos-positive neurons in laminae I-II, III-IV and V-VI: vs water pretreated rats; for mean reduction in number of fos-positive neurons per section: vs control group, p<0.05. How it is done: For Fos immunohistochemistry, rats were perfused one hour after the behavioral test was done as described below. The lumbar spinal cord was removed and cut into 30 μm transverse sections. Sections were processed following the above-mentioned procedures except that the primary antibody was substituted with polyclonal rabbit anti-Fos antibody (1:4,000, Santa Cruz Biotechnology, Inc., CA).
as §1

Data set [8] concerns mechanical allodynia induced by capsaicin. Particulars: Sluka and Willis (1997); cited from earlier work.
[9] abbreviates: 100 mg/kg i.p. in peanut oil each day for 4 days.

Take `O=[N+]([O-])c1cccc2cn[nH]c12` [7-NI, 7-Nitroindazole]: the “PKGIα protein level relative to group 1 (saline-injected control)” value in [1] (setting [9]) was 1.17 fold.

For the molecule `CCNCCN(CC)N(O)N=O` [NOC-12, N-ethyl-2-(1-ethyl-2-hydroxy-2-nitrosohydrazino)ethanamine], the “changes in animal behavior on subjective observation” value (shortened to “changes in animal behavior”) in [2] is recorded as “no obvious changes in animal behavior”. The “maximal decrease in the tail-flick latency” value is listed as 5.4% in the data set with tail-flick latency (10 μg intrathecal); 18.5% in the data set with tail-flick latency (20 μg intrathecal, p<0.01); 24.9% in the data set on tail-flick latency (30 μg intrathecal, p<0.01). Also, the “tail flick latency after maximal reduction” value with tail-flick latency (30 μg intrathecal, baseline 6.53±0.28 seconds) is 4.65 ± 0.32 s. For the same molecule, the “hyperalgesia 120 min after intrathecal injection” value with tail-flick latency (120 min after intrathecal injection) is listed as “no longer observed”. Also, the “time of maximum effect on tail-flick latency” value in the data set on tail-flick latency (intrathecal, decrease seen from 15 to 90 min) was 60 min.

As for `C[C@]12N[C@H](Cc3ccccc31)c1ccccc12` [MK-801, dizocilpine maleate], in data set [3] (prior intrathecal treatment, p<0.01), the “effect on NMDA-produced facilitation of the tail-flick reflex” value is reported as “completely abolished”. In addition, the “PKGIα protein level relative to group 1 (saline-injected control)” value in data set [1] (2 mg/kg i.p. each day for 4 days) is on record as 1.13 fold.

For `CN(C)c1ccc2nc3ccc(=[N+](C)C)cc-3sc2c1` [methylene blue], the “effect on NMDA-produced facilitation of the tail flick reflex” value in data set [4] is on record as “completely abolished”.

On to `COC(=O)[C@@H](N)CCCNC(=N)N[N+](=O)[O-]` [N^G-nitro-L-arginine methyl ester], for which the “effect on NMDA-produced facilitation of the tail flick reflex” value in [4] is on record as “completely abolished”.

Regarding `CCN(CC)CC.Nc1nc2c(nc(Sc3ccc(Cl)cc3)n2[C@@H]2O[C@@H]3COP(O)(=S)O[C@H]3[C@H]2O)c(=O)[nH]1` (stereo partly drawn) [Rp-8-p-CPT-cGMPS, Rp-8-[(4-Chlorophenyl)thio]-cGMPS triethylamine], the “effect on the formalin response” value in data set [5] (10 μg intrathecal, phasic or tonic period) was “did not influence”. Besides, in data set [5] (20 μg intrathecal, phasic period), the “effect on the formalin-induced behavior” value was “no effect”. Also, the “suppression of the formalin-induced behavior” value in [5] (20 μg intrathecal, tonic period, p<0.01) is on record as 25%. For the same molecule, the “reduction of the number of flinches and shakes evoked by formalin” value in data set [5] (phasic period (0-10 min), p<0.01) is listed as 64%; in data set [5] (tonic period (10-60 min), p<0.01), 66%. Also, the “effect on the hyperalgesia induced by NOC-12” value in data set [6] (7.5 μg intrathecal, 30 μg NOC-12, p>0.05) was “did not influence”. Further, the “effect on NOC-12-induced decrease in the tail-flick latency” value in data set [6] (15 μg intrathecal 10 min prior to 30 μg NOC-12) and in [6] (30 μg intrathecal 10 min prior to 30 μg NOC-12) was “significantly blocked” throughout. For the same molecule, the “changes in animal behavior” value in data set [2] is recorded as “no obvious changes in animal behavior”. Moreover, the “effect on the baseline tail-flick latency” value in the data set with tail-flick latency (7.5, 15 and 30 μg given alone, 15 to 120 min after administration, p>0.05) was “no significant effect”. The “effect on the NMDA-evoked facilitation of the tail-flick reflex” value in data set [3] (7.5 μg intrathecal, p>0.05) is “failed to produce significant effect”. In addition, the “suppression of the NMDA-induced decrease of the tail-flick latency” value in data set [3] (15 μg intrathecal prior administration, p<0.01) is on record as 13.3%; in data set [3] (30 μg intrathecal prior administration, p<0.01), 20.7%. Also, the “number of Fos-positive neurons in laminae I-II, III-IV and V-VI” value in data set [7] (20 μg intrathecal) and in data set [7] (30 μg intrathecal) was “significantly decreased” each time. For the same molecule, the “mean reduction in number of fos-positive neurons per section” value in [7] (30 μg intrathecal, neck of dorsal horn) stood at 51%; in data set [7] (30 μg intrathecal, nucleus proprius) it was 30%; in data set [7] (30 μg intrathecal, superficial laminae), 29%. In addition, the “number of Fos-positive neurons in laminae VII-X” value in [7] (intrathecal 10, 20 and 30 μg, vs water) is on record as “no significant reduction”. The “Fos-positive neurons in the spinal cord” value in data set [7] (treatment with the agent only (30 μg intrathecal), no formalin) is on record as “no Fos-positive neurons”.

Turning to `COC(=O)[C@@]1(OC)C[C@H]2O[C@]1(C)n1c3ccccc3c3c4c(c5c6ccccc6n2c5c31)C(=O)N(C)C4` [KT5823], the “effect on mechanical allodynia induced by capsaicin” value in data set [8] is given as “reversed”.

In the case of `CN[C@H](CC(=O)O)C(=O)O` [NMDA, N-methyl-D-aspartate], the “changes in animal behavior” value in [2] was “caudally directed biting and scratching behaviors”. Further, the “tail-flick latency after intrathecal administration” value in the data set with tail-flick latency (intrathecal NMDA, baseline 6.58±0.57 seconds, p<0.01) is 4.88 ± 0.41 s.

`O=c1onc2cnc3ccccc3n12` [ODQ, 1H-[1,2,4]oxadiazolo[4,3-a]quinoxalin-1-one]: the “PKGIα protein level relative to group 1 (saline-injected control)” value in [1] (setting [9]) came to 1.14 fold.

The values are drawn from patent US6476007B2, “Isoform specific inhibition for treatment of pain and reduction of anesthetic threshold” (The Johns Hopkins University, priority 1999, dated 2002).
